Test results from paper PMC5986654, “Combined HAT/EZH2 modulation leads to cancer-selective cell death” (Oncotarget, 2018).

Columns and labels:
HCT116 colon carcinoma = assay: Immunohistochemistry and TUNEL of HCT116 xenograft tumors; type: in vivo, mice; settings: end of treatment, 10 mg/Kg
Method: HCT116 cell line was grown in McCoy’s medium, supplemented with 10% inactivated FBS, 2 mM glutamine and standard concentration of antibiotics. 7- to 8-week-old male CD1 nude athymic mice were purchased from Charles River and under pathogen-free conditions in accordance with European Directives no. 2010/63 and with Italian D.L. 26/2014. Mice were injected subcutaneously into the right flank with 4 × 10^6 of HCT116 cells; tumor volume (mm^3) was evaluated three times a week by caliper using the formula Dmax x dmin^^2/2, where ‘d’ and ‘D’ are the shortest and the longest diameters, respectively. For all experiments, mice were randomly divided (n = 7) and intra-peritoneal injected by day five every day with: vehicle sesame oil/DMSO 6%; MC2884 10 mg/Kg in sesame oil/DMSO 6%. Mice were sacrificed after 20 days of drug treatment and tumors explanted for immunohistochemical analyses. For HCT116-DKO colon cancer, 6 × 10^6 cells were injected.
The biopsy specimens were fixed in 10% buffered-formalin and paraffin-embedded. Sections of […] were stained with haematoxylin-eosin, and haematoxylin-van Gieson. For immunohistochemistry, specimens were incubated in a microwave oven for 15 min in 10 mM buffered citrate pH 6.0 followed by the immunohistochemical procedure for Ki67 (Santa Cruz Biotechnology Inc., CA, USA), H3K27me3, H3K9/14ac (Diagenode). The conventional avidin-biotin complex procedure was applied according to manufacturer’s protocol (Dako Carpinteria, CA, USA) and incubated with secondary antibody. […] Slides were cover-slipped with a xylene-based mounting medium. Staining was scored as percentage of positive nuclei per high power field 10 × 40. Negative controls for each tissue section were performed omitting the primary antibody. Positive controls included in each experiment consisted of tissue previously shown to express the antigen of interest. TUNEL reaction was performed using the peroxidase-based Apoptag kit (Oncor, Gaithersburg, MD, US). TUNEL positive cells were detected with DAB and H2O2 according to the supplier’s instructions. The experiments were repeated on different sections for each specimen (two to four). For all immunohistochemical markers, 100 random fields (250×) per section were analysed (12.5 mm^2). Mann–Whitney and Wilcoxon tests were used to assess the relationship between ordinal data. Two-tailed P value was considered significant when ≤ 0.05. SPSS software (version 10.00, SPSS, Chicago, IL, USA) was used for statistical analysis.

[1] = Mouse terminal IV PK study; type: in vivo; settings: iv 2 mg/kg, male CD1 mice, plasma
Method: pHarmaCology male CD1 mice in a 5 mL/kg injection volume. Terminal blood samples (> 230 μL) were taken under CO2 from pharmacokinetic analysis (mice–iV, ip pK study) groups of 3 mice at each of 8 time-points post dose (0.083, 0.25, 0.5, 1, 2, 4, 8 and 24 h) and placed into heparinized
Compound was administered both intravenously and tubes. Samples were placed on ice for no longer than 30 intraperitoneally to mice. Blood samples were collected at min before centrifugation (10,000 rpm × 3 min). Plasma 8 time points over 24 hr and plasma analysed by LC-MS/ samples (>100 μL) were collected into fresh tubes and MS to determine the concentration of compound. frozen on dry ice. Number of plasma samples = 24.
The plasma time concentration profile was Consistent IV profiles were obtained, with little calculated with the main PK parameters (Co, AUClast, variability across the time-points (the average profile is t.,VD, and CL). shown in the second spreadsheet). An average half-life of […]
For ip dosing. After formulation assessment, […]
For iv dosing. Compound was dissolved at 0.4 mg/mL. […]

[2] = scored as percentage of positive nuclei

In the case of `O=C1/C(=C/c2cccc(Br)c2)CN(Cc2ccccc2)C/C1=C\c1cccc(Br)c1` [MC2884], the “apoptotic index (TUNEL)” value (HCT116 colon carcinoma) is reported as 35±4, the “H3 K9/14ac” value (HCT116 colon carcinoma; [2]) is reported as 5±0.2 and the “H3 K27me3” value (HCT116 colon carcinoma; [2]) is reported as 19±2. For the same compound, the “proliferation index (Ki67)” value (HCT116 colon carcinoma; [2]) was 6±0.5 and the half-life [1] was 4.58 h.
